In PMC12040169 (PLOS Biology, 2025):

experiment: in vitro; settings: human, hela cells, % viability

Going from `COc1cccc(-c2cnc(N)c(N3CCN(CCN(C)C)CC3)n2)c1` [CBK063561] to `CN(C)CCN1CCN(c2nc(-c3occc3C=O)cnc2N)CC1` [CBK063917], the viability at 28.5 h, 10 µM falls from 108% to 96.3%.

First: COCCNc1nc(-c2cccc3ccccc23)cnc1N [CBK063574]
Second: CC(C)[C@H](CO)Nc1nc(-c2cccc3ccccc23)cnc1N [CBK063701]
The viability at 28.5 h, 10 µM of the first is lower: 99.1% for the first, 101% for the second.

`Nc1ncc(-c2cncnc2)nc1NCc1ccccc1` [CBK063584] and `Nc1ncc(-c2ccncc2)nc1NCc1cccnc1` [CBK063879] are the same in viability at 28.5 h, 10 µM: 103% for the first, 103% for the second.

Compared with `Nc1ncc(-c2cccc3ccccc23)nc1NC1CCCCC1` [CBK063588], `CC(C)[C@@H](CO)Nc1nc(-c2cccc3ccccc23)cnc1N` [CBK063725] is higher in viability at 28.5 h, 10 µM: 94% for the first, 95.2% for the second.

First: CC(C)(CO)CNc1nc(-c2ccc(F)cc2)cnc1N [CBK063589]
Second: CC(C)[C@H](CO)Nc1nc(-c2ccc(S(C)(=O)=O)cc2)cnc1N [CBK063718]
The viability at 28.5 h, 10 µM of the first is lower: 95.7% for the first, 110% for the second.

First: CC(=O)c1ccc(-c2cnc(N)c(NC3CCCCC3)n2)s1 [CBK063596]
Second: CC(=O)Nc1cccc(-c2cnc(N)c(NC3CCOCC3)n2)c1 [CBK063845]
The viability at 28.5 h, 10 µM of the first is lower: 106% for the first, 107% for the second.

Going from `Nc1ncc(-c2ccsc2)nc1NCc1ccncc1` [CBK063614] to `Nc1ncc(-c2ccoc2)nc1NCc1ccncc1` [CBK063656], the viability at 28.5 h, 10 µM falls from 107% to 95.1%.

Compared with `Nc1ncc(-c2cccc3cccnc23)nc1NCc1ccncc1` [CBK063622], `C[C@H](Nc1nc(-c2cccc3ncccc23)cnc1N)c1ccccc1` [CBK063771] is higher in viability at 28.5 h, 10 µM: 87.4% for the first, 97.6% for the second.

First: Nc1ncc(-c2ccncc2)nc1NCCCN1CCOCC1 [CBK063631]
Second: Nc1ncc(-c2ccsc2)nc1NCC1CCOCC1 [CBK063848]
The viability at 28.5 h, 10 µM of the first is lower: 98.9% for the first, 102% for the second.

Going from `Nc1ncc(-c2cccc3ccccc23)nc1Nc1ccc2[nH]ccc2c1` [CBK063659] to `COc1ccc(C(C)C)cc1-c1cnc(N)c(Nc2ccc3[nH]ccc3c2)n1` [CBK063827], the viability at 28.5 h, 10 µM rises from 90.9% to 97.1%.

Going from `NC(=O)c1cccc(-c2cnc(N)c(NCc3ccco3)n2)c1` [CBK063660] to `Nc1ncc(-c2cccc(/C=C/C(=O)O)c2)nc1NCc1ccco1` [CBK063691], the viability at 28.5 h, 10 µM falls from 116% to 98.7%.

First: Nc1ncc(-c2ccc3c(c2)OCO3)nc1Nc1ccc2[nH]ccc2c1 [CBK063667]
Second: CCCC/C=C/c1cnc(N)c(Nc2ccc3[nH]ccc3c2)n1 [CBK063811]
The viability at 28.5 h, 10 µM of the first is lower: 94.6% for the first, 95.7% for the second.

First: Nc1ncc(-c2ccco2)nc1NCc1ccco1 [CBK063682]
Second: Nc1ncc(-c2ccco2)nc1NCC1CCOCC1 [CBK063825]
The viability at 28.5 h, 10 µM of the first is lower: 91.8% for the first, 100% for the second.

Going from `Nc1ncc(-c2ccc(O)cc2)nc1N1CCN(CCO)CC1` [CBK063685] to `CN1CCN(c2ccc(-c3cnc(N)c(NC4CCOCC4)n3)cc2)CC1` [CBK064114], the viability at 28.5 h, 10 µM falls from 105% to 88.8%.

Going from `COc1ccccc1-c1cnc(N)c(N[C@H](C)c2ccccc2)n1` [CBK063705] to `COc1ccccc1-c1cnc(N)c(N[C@@H](C)c2ccccc2)n1` [CBK063721], the viability at 28.5 h, 10 µM rises from 102% to 107%.

First: CC(C)CNc1nc(-c2cc(C(F)(F)F)cc(C(F)(F)F)c2)cnc1N [CBK063708]
Second: Nc1ncc(-c2cc(C(F)(F)F)cc(C(F)(F)F)c2)nc1NC1CCC(O)CC1 (stereo not drawn) [CBK063808]
The viability at 28.5 h, 10 µM of the first is lower: 85.7% for the first, 92% for the second.

Going from `CC(C)[C@@H](CO)Nc1nc(-c2occc2C=O)cnc1N` [CBK063733] to `CC(C)[C@H](CO)Nc1nc(-c2ccc(F)c(Cl)c2)cnc1N` [CBK063949], the viability at 28.5 h, 10 µM rises from 102% to 109%.

First: COc1cncc(-c2cnc(N)c(N[C@@H](CO)C(C)C)n2)c1 [CBK063734]
Second: CC(C)[C@H](CO)Nc1nc(-c2cccc(OC(F)(F)F)c2)cnc1N [CBK063957]
The viability at 28.5 h, 10 µM of the first is higher: 106% for the first, 85.7% for the second.

Compared with `CC(C)[C@@H](CO)Nc1nc(-c2ccc(S(C)(=O)=O)cc2)cnc1N` [CBK063750], `CS(=O)(=O)c1ccc(-c2cnc(N)c(NC3CCC(O)CC3)n2)cc1` (stereo not drawn) [CBK063865] is higher in viability at 28.5 h, 10 µM: 91.2% for the first, 110% for the second.

First: C[C@H](Nc1nc(-c2ccc(-c3ccccc3)cc2)cnc1N)c1ccccc1 [CBK063760]
Second: Nc1ncc(-c2ccccc2)nc1-c1ccc(O)cc1 [CBK064030]
The viability at 28.5 h, 10 µM of the first is lower: 93.5% for the first, 96.7% for the second.

First: COc1cc(-c2cnc(N)c(N[C@H](CO)C(C)C)n2)cc(OC)c1OC [CBK063765]
Second: COc1ccc(-c2cnc(N)c(NCC(C)C)n2)c(OC)c1OC [CBK063855]
The viability at 28.5 h, 10 µM of the first is higher: 113% for the first, 95.4% for the second.

Going from `Nc1ncc(-c2occc2C=O)nc1NC1CCOCC1` [CBK063789] to `Nc1ncc(-c2ccccc2CO)nc1NC1CCOCC1` [CBK063799], the viability at 28.5 h, 10 µM falls from 103% to 98.7%.

Compared with `Nc1ncc(-c2cccnc2)nc1NC1CCC(O)CC1` (stereo not drawn) [CBK063840], `Nc1ncc(-c2cncnc2)nc1NC1CC1` [CBK063869] is higher in viability at 28.5 h, 10 µM: 92.7% for the first, 101% for the second.

Going from `COc1ccc(-c2cnc(N)c(NC3CCOCC3)n2)c(OC)c1OC` [CBK063844] to `COc1ccccc1-c1cnc(N)c(NC2CCOCC2)n1` [CBK063853], the viability at 28.5 h, 10 µM falls from 113% to 104%.

Going from `CS(=O)(=O)c1ccc(-c2cnc(N)c(NCC3CCOCC3)n2)cc1` [CBK063849] to `Nc1ncc(-c2cccc(F)c2)nc1NCC1CCOCC1` [CBK063860], the viability at 28.5 h, 10 µM falls from 103% to 98.7%.

First: CC(C)CNc1nc(-c2cccc(O)c2)cnc1N [CBK063862]
Second: Nc1ncc(-c2cccc(O)c2)nc1-c1ccc(C(=O)NCCO)cc1 [CBK064143]
The viability at 28.5 h, 10 µM of the first is lower: 99.1% for the first, 114% for the second.

Compared with `Nc1ncc(-c2cncnc2)nc1NCC1CCOCC1` [CBK063877], `Nc1cccc(-c2nc(-c3cncnc3)cnc2N)c1` [CBK063907] is higher in viability at 28.5 h, 10 µM: 98.1% for the first, 102% for the second.

Going from `CCCC/C=C/c1cnc(N)c(Nc2ccc(OC)cc2)n1` [CBK063890] to `CCCC/C=C/c1cnc(N)c(Nc2ccc(OC)cc2C)n1` [CBK064090], the viability at 28.5 h, 10 µM rises from 93.9% to 101%.

Compared with `Nc1cccc(-c2nc(-c3cccnc3)cnc2N)c1` [CBK063906], `Nc1cccc(-c2nc(-c3cccs3)cnc2N)c1` [CBK063923] is lower in viability at 28.5 h, 10 µM: 95.3% for the first, 94.5% for the second.

Compared with `CN(C)c1ccc(-c2nc(-c3cccc(OC(F)(F)F)c3)cnc2N)cc1` [CBK063942], `Nc1ncc(-c2cccc(OC(F)(F)F)c2)nc1-c1ccc(C(=O)N2CCOCC2)cc1` [CBK064091] is lower in viability at 28.5 h, 10 µM: 98.3% for the first, 96.8% for the second.

First: COc1ccc(-c2nc(-c3cccc(F)c3)cnc2N)cc1OC [CBK063948]
Second: COc1ccc(-c2cnc(N)c(-c3ccc(F)c(Cl)c3)n2)cn1 [CBK063966]
The viability at 28.5 h, 10 µM of the first is lower: 98.4% for the first, 111% for the second.

Compared with `COc1ccc(Nc2nc(-c3cccnc3)cnc2N)cc1` [CBK063952], `COCOc1ccc(-c2nc(-c3cccnc3)cnc2N)cc1` [CBK063999] is higher in viability at 28.5 h, 10 µM: 90.3% for the first, 93.6% for the second.

Compared with `CCCC/C=C/c1cnc(N)c(-c2cccc(N)c2)n1` [CBK063954], `CCCC/C=C/c1cnc(N)c(-c2ccc(CCC(=O)O)cc2)n1` [CBK064127] is lower in viability at 28.5 h, 10 µM: 102% for the first, 95.5% for the second.

Going from `NCC1CCN(c2nc(-c3cc(C(F)(F)F)cc(C(F)(F)F)c3)cnc2N)CC1` [CBK063960] to `Nc1ncc(-c2ccc3c(c2)OCO3)nc1N1CCC(C(=O)O)CC1` [CBK064074], the viability at 28.5 h, 10 µM rises from 87.3% to 101%.

First: CN(C)c1cccc(-c2nc(-c3ccco3)cnc2N)c1 [CBK063970]
Second: CN(C)c1cccc(-c2nc(-c3cccs3)cnc2N)c1 [CBK063979]
The viability at 28.5 h, 10 µM of the first is lower: 89.2% for the first, 93.5% for the second.

Compared with `Nc1ncc(-c2ccoc2)nc1-c1ccc(F)c(Cl)c1` [CBK063982], `Nc1ncc(-c2ccc(Cl)cc2)nc1-c1ccc(CCC(=O)O)cc1` [CBK064063] is lower in viability at 28.5 h, 10 µM: 93.9% for the first, 92.9% for the second.

Compared with `COCOc1ccc(-c2nc(-c3cnc(OC)nc3OC)cnc2N)cc1` [CBK063991], `COc1ncc(-c2cnc(N)c(-c3ccc(C=O)cc3)n2)c(OC)n1` [CBK064110] is higher in viability at 28.5 h, 10 µM: 91.9% for the first, 94.1% for the second.

Compared with `CN(C)c1cccc(-c2nc(-c3ccc(C#N)cc3)cnc2N)c1` [CBK064049], `COc1ccc(-c2cnc(N)c(-c3ccc(C=O)cc3)n2)cn1` [CBK064096] is lower in viability at 28.5 h, 10 µM: 91.5% for the first, 90.8% for the second.

Going from `Nc1ncc(-c2cccnc2)nc1-c1ccc(C(=O)N2CCOCC2)cc1` [CBK064059] to `COc1ccc(-c2cnc(N)c(-c3ccc(C(=O)NCCO)cc3)n2)cn1` [CBK064147], the viability at 28.5 h, 10 µM rises from 93.4% to 95.6%.

Compared with `CC(=O)c1ccc(-c2nc(-c3occc3C=O)cnc2N)cc1` [CBK064081], `Nc1ncc(-c2ccco2)nc1-c1ccc(C=O)cc1` [CBK064095] is higher in viability at 28.5 h, 10 µM: 89.9% for the first, 102% for the second.

Going from `COc1ccc(Nc2nc(-c3cc(C(C)C)ccc3OC)cnc2N)c(C)c1` [CBK064098] to `COCOc1ccc(-c2nc(-c3ccco3)cnc2N)cc1` [CBK064108], the viability at 28.5 h, 10 µM falls from 87% to 82.9%.

First: Nc1ncc(-c2cncnc2)nc1-c1ccc(CCC(=O)O)cc1 [CBK064120]
Second: Nc1ncc(-c2cc3ccccc3s2)nc1-c1ccc(CCC(=O)O)cc1 [CBK064134]
The viability at 28.5 h, 10 µM of the first is higher: 102% for the first, 98.1% for the second.

Compared with `Nc1ncc(-c2ccco2)nc1-c1ccc(C(=O)NCCO)cc1` [CBK064124], `CCCC/C=C/c1cnc(N)c(-c2ccc(C(=O)NCCO)cc2)n1` [CBK064141] is higher in viability at 28.5 h, 10 µM: 91.1% for the first, 106% for the second.

Going from `COCCn1c(=O)[nH]c2ncc(-c3ccc4c(c3)OCO4)nc21` [CBK064164] to `CC(C)Cn1c(=O)[nH]c2ncc(-c3cncnc3)nc21` [CBK064177], the viability at 28.5 h, 10 µM falls from 95.8% to 90.1%.

Going from `CCCC/C=C/c1cnc2[nH]c(=O)n([C@H](C)c3ccccc3)c2n1` [CBK064182] to `CCCC/C=C/c1cnc2[nH]c(=O)n(CC(C)C)c2n1` [CBK064225], the viability at 28.5 h, 10 µM falls from 99.7% to 96.4%.

Compared with `CN(C)CCNC(=O)c1cccc(-c2cnc3[nH]c(=O)n(C4CCCCC4)c3n2)c1` [CBK064191], `COc1cncc(-c2cnc3[nH]c(=O)n(C4CCCCC4)c3n2)c1` [CBK064230] is lower in viability at 28.5 h, 10 µM: 103% for the first, 97.8% for the second.

`C[C@@H](c1ccccc1)n1c(=O)[nH]c2ncc(-c3cccc4cccnc34)nc21` [CBK064199] showed a viability at 28.5 h, 10 µM of 92%.
